Key:
Assay in all cases: PME-1 inhibitors in HeLa proteome, late-stage follow-up, selectivity assay, cell lysate, gel-based competitive ABPP, fluorescence, powder samples (AID 463149);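 further: 0% = DMSO-treated band intensity and 100% = blank gel background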
[1] = biological target: Fatty acid synthase (Homo sapiens) (UniProt P49327); conditions: HeLa soluble proteome, FP-Rh fluorescence, measured here: Anti-Target FAS, stronger effect = higher value
Anti-Target CES = conditions: HeLa soluble proteome, FP-Rh fluorescence, measured here: Anti-Target CES, stronger effect = higher value
Anti-Target ABHD10 = conditions: HeLa soluble proteome, FP-Rh fluorescence, stronger effect = higher value
[2] = biological target: Protein phosphatase methylesterase 1 (Homo sapiens) (UniProt Q9Y570); conditions: HeLa soluble proteome, FP-Rh fluorescence, stronger effect = higher value
Anti-Target PREP = conditions: HeLa soluble proteome, FP-Rh fluorescence, measured here: Anti-Target PREP, stronger effect = higher value
[3] = biological target: Acylamino-acid-releasing enzyme (Homo sapiens) (UniProt P13798); conditions: HeLa soluble proteome, FP-Rh fluorescence, measured here: Anti-Target APEH, stronger effect = higher value
[4] = measured here: Anti-Target ABHD10, at 1 µM
[5] = measured here: Anti-Target ABHD10, at 20 µM

Chain of Acylamino-acid-releasing enzyme (Homo sapiens) (P13798 whole entry, looked up): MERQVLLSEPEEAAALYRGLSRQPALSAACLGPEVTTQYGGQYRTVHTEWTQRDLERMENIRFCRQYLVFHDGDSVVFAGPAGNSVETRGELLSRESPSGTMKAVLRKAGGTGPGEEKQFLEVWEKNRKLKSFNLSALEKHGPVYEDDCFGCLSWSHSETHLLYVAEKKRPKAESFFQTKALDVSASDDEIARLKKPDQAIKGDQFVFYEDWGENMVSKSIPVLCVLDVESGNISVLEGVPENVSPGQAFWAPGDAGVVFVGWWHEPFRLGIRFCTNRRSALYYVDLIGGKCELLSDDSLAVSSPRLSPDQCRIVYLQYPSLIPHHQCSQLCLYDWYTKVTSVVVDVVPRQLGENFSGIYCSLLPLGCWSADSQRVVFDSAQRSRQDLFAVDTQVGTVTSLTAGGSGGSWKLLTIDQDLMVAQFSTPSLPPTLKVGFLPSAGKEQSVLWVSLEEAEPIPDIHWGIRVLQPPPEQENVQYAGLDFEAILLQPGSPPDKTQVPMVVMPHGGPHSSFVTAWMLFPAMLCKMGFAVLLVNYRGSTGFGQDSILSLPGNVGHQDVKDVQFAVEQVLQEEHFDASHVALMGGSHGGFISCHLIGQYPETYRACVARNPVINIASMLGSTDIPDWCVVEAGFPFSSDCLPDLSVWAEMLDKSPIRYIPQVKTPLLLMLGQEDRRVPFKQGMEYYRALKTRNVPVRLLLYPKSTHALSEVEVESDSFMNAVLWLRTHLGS
Chain of Protein phosphatase methylesterase 1 (Homo sapiens) (Q9Y570 whole entry, looked up): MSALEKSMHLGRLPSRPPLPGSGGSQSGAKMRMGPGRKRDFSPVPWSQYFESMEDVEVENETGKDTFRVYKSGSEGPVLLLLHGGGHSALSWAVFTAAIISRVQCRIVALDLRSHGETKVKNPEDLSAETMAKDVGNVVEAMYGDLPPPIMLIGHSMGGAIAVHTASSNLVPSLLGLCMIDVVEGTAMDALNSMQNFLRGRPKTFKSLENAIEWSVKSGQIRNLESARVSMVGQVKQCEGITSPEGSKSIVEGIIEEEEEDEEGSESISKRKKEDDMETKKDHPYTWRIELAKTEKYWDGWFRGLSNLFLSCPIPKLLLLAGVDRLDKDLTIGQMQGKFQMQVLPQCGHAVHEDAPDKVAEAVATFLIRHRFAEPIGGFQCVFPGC
Chain of Fatty acid synthase (Homo sapiens) (P49327 whole entry, looked up): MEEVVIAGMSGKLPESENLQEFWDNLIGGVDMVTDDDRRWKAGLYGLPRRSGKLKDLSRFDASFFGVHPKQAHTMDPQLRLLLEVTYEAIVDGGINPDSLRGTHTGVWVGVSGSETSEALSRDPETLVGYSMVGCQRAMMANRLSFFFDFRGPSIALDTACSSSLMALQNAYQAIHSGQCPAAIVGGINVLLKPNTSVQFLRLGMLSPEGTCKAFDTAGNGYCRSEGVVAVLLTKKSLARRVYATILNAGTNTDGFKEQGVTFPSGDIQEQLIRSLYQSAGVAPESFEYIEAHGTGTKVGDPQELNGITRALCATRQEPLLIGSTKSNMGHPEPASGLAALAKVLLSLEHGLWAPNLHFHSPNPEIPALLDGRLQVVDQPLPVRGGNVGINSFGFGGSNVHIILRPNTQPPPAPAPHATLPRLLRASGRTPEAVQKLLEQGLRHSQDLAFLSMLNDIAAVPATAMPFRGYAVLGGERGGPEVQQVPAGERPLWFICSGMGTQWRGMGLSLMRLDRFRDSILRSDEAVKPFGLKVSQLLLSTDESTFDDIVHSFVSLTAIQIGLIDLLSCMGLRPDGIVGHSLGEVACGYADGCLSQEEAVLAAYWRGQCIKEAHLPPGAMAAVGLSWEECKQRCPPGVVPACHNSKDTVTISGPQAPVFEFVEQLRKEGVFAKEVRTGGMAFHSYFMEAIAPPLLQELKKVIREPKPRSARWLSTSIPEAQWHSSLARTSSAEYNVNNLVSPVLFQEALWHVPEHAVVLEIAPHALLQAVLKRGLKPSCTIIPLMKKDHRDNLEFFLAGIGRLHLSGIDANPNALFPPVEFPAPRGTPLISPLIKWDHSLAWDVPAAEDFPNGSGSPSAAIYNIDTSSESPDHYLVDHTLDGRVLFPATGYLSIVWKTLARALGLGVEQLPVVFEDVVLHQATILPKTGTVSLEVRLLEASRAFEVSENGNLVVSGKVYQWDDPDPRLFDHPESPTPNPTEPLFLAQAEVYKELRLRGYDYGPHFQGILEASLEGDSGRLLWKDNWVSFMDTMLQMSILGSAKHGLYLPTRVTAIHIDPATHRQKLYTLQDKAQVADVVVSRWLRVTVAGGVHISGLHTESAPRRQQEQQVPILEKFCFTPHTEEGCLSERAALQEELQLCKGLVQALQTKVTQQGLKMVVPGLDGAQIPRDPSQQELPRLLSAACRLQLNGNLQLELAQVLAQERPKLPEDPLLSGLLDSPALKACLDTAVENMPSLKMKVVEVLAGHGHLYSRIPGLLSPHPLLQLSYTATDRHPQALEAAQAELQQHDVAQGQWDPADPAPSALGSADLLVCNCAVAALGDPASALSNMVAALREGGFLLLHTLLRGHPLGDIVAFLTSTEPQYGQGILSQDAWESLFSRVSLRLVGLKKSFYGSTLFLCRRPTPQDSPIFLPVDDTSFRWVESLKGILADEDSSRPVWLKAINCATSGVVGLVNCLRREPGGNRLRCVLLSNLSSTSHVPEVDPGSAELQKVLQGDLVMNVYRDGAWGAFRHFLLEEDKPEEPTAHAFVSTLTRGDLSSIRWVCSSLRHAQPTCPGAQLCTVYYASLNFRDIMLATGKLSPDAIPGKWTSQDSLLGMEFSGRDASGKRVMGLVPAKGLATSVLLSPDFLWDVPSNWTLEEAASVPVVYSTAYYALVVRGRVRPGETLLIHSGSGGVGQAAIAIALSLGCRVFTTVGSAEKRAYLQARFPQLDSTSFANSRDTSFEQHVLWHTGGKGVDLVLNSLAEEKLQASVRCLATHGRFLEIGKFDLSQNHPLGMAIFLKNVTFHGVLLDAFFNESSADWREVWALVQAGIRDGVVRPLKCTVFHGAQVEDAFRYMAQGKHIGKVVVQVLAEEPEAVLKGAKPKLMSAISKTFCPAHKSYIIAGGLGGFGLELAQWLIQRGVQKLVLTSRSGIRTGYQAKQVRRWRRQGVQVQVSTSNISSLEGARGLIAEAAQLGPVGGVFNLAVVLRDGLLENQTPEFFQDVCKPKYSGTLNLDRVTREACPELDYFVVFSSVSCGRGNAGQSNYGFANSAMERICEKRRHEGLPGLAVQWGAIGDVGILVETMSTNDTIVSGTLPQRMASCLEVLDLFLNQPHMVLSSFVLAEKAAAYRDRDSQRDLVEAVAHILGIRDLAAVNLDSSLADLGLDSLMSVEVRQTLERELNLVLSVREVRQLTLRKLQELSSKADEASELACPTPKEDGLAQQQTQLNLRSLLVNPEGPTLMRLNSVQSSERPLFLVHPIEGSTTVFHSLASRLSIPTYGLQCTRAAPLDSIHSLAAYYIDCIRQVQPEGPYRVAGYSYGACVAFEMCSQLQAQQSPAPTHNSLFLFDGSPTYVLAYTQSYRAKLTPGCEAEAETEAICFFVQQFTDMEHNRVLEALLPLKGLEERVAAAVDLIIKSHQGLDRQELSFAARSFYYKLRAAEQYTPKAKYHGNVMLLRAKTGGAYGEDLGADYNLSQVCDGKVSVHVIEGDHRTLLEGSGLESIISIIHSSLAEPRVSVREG

SMILES | inhibition ([1]; at 1 µM) [%] | inhibition ([1]; at 20 µM) [%] | inhibition (Anti-Target CES; at 1 µM) [%] | inhibition (Anti-Target CES; at 20 µM) [%] | inhibition (Anti-Target ABHD10; [4]) [%] | inhibition (Anti-Target ABHD10; [5]) [%] | inhibition ([2]; PME-1, inhibition, at 1 µM) [%] | inhibition ([2]; PME-1, inhibition, at 20 µM) [%] | inhibition (Anti-Target PREP; at 1 µM) [%] | inhibition (Anti-Target PREP; at 20 µM) [%] | inhibition ([3]; at 1 µM) [%] | inhibition ([3]; at 20 µM) [%] | inhibition ([2]; PME-1, at 0.1 µM) [%]
CC[C@@]1(c2ccccc2)C(=O)N(C(=O)OC)N1C(=O)OC | 0 | 0 | 0 | > 50 | 0 | 50 | 0 | 100 | 0 | > 50 | 0 | 0 | 
CC[C@@]1(c2cccc(C)c2)C(=O)N(C(=O)OC)N1C(=O)OC | 0 | > 50 | > 50 | > 50 | 0 | 50 | 0 | 100 | 0 | > 50 | 0 | 0 | 
COC(=O)N1C(=O)[C@](c2ccc(OC)cc2)(C(C)C)N1C(=O)OC | 0 | > 50 | 0 | 0 | 0 | 0 | 100 | 100 | 0 | 0 | 0 | 0 | 
CCOC(=O)N1C(=O)[C@](CC)(c2ccccc2)N1C(=O)OCC | 0 | > 50 | > 50 | > 50 | 0 | 0 | 0 | 100 | 0 | 0 | 0 | 0 | 
COC(=O)N1C(=O)[C@@](CC(C)C)(c2ccccc2)N1C(=O)OC | 0 | > 50 | > 50 | > 50 | 0 | 0 | 100 | 100 | 0 | 0 | 0 | > 50 | 
CCOC(=O)N1C(=O)[C@](c2ccc(Cl)cc2)(C(C)C)N1C(=O)OCC | 0 | 0 | 0 | 0 | 0 | 0 | 50 | 100 | 0 | 0 | 0 | 0 | 
CC[C@]1(c2ccccc2)C(=O)N(C(=O)OC)N1C(=O)OC | 0 | 0 | > 50 | > 50 | 0 | 0 | 75 | 100 | 0 | 0 | 0 | 0 | 
CC[C@]1(c2ccccc2C)C(=O)N(C(=O)OC)N1C(=O)OC | 0 | 0 | 0 | > 50 | 0 | 0 | 0 | 100 | 0 | 0 | 0 | 0 | 
COC(=O)N1C(=O)[C@@](c2ccccc2)(C2CCCC2)N1C(=O)OC | 0 | 0 | 0 | 0 | 0 | 0 | 100 | 100 | 0 | 0 | 0 | 0 | 50
CC[C@@]1(c2ccccc2C)C(=O)N(C(=O)OC)N1C(=O)OC | 0 | 0 | > 50 | > 50 | 0 | 0 | 50 | 100 | 0 | 0 | 0 | 0 | 
COC(=O)N1C(=O)[C@](c2ccccc2)(C2CCCCC2)N1C(=O)OC | 0 | > 50 | 0 | 0 | 0 | 0 | 100 | 100 | 0 | 0 | 0 | 0 | 90

Second part, the compound after the results:

inhibition ([1]; at 1 µM) [%] | inhibition ([1]; at 20 µM) [%] | inhibition (Anti-Target CES; at 1 µM) [%] | inhibition (Anti-Target CES; at 20 µM) [%] | inhibition (Anti-Target ABHD10; [4]) [%] | inhibition (Anti-Target ABHD10; [5]) [%] | inhibition ([2]; PME-1, inhibition, at 1 µM) [%] | inhibition ([2]; PME-1, inhibition, at 20 µM) [%] | inhibition (Anti-Target PREP; at 1 µM) [%] | inhibition (Anti-Target PREP; at 20 µM) [%] | inhibition ([3]; at 1 µM) [%] | inhibition ([3]; at 20 µM) [%] | inhibition ([2]; PME-1, at 0.1 µM) [%] | SMILES
0 | 0 | 0 | 0 | 0 | 0 | 100 | 100 | 0 | 0 | 0 | 0 |  | COC(=O)N1C(=O)[C@](c2ccccc2)(C(C)C)N1C(=O)OC
> 50 | > 50 | > 50 | > 50 | 0 | 0 | 100 | 100 | 0 | 0 | 0 | > 50 | 100 | COC(=O)N1C(=O)[C@](CC(C)C)(c2ccccc2)N1C(=O)OC
0 | 0 | 0 | 0 | 0 | 0 | 100 | 100 | 0 | 0 | 0 | 0 |  | COC(=O)N1C(=O)[C@@](c2ccccc2)(C2CCCCC2)N1C(=O)OC
0 | 0 | 0 | > 50 | 0 | 0 | 0 | 100 | 0 | 0 | 0 | 0 |  | COC(=O)N1C(=O)[C@@](c2ccccc2)(C(C)C)N1C(=O)OC
0 | > 50 | > 50 | > 50 | 0 | 0 | 50 | 100 | 0 | 0 | 0 | 0 |  | CC[C@]1(c2cccc(C)c2)C(=O)N(C(=O)OC)N1C(=O)OC
0 | 0 | 0 | > 50 | 0 | 50 | 0 | 0 | 0 | > 50 | 0 | 0 |  | CCOC(=O)N1C(=O)[C@@](CC)(c2ccccc2)N1C(=O)OCC
0 | 0 | 0 | > 50 | 0 | 0 | 0 | 50 | 0 | 0 | 0 | 0 |  | COC(=O)N1C(=O)[C@@](c2ccc(OC)cc2)(C(C)C)N1C(=O)OC
0 | 0 | 0 | 0 | 0 | 0 | 0 | 0 | 0 | 0 | 0 | 0 |  | CCOC(=O)N1C(=O)[C@@](c2ccc(Cl)cc2)(C(C)C)N1C(=O)OCC
0 | > 50 | 0 | 0 | 0 | 0 | 100 | 100 | 0 | 0 | 0 | > 50 | 100 | COC(=O)N1C(=O)[C@](c2ccccc2)(C2CCCC2)N1C(=O)OC
0 | 0 | 0 | 0 | 0 | 0 | 50 | 100 | 0 | 0 | 0 | 0 |  | COC(=O)N1C(=O)[C@](c2ccsc2)(C(C)C)N1C(=O)OC
0 | 0 | > 50 | > 50 | 0 | 50 | 0 | 50 | 0 | 0 | 0 | 0 |  | COC(=O)N1C(=O)[C@@](Cc2ccccc2)(c2ccccc2)N1C(=O)OC

Reference: PubChem BioAssay AID463149 (The Scripps Research Institute Molecular Screening Center, 2010)
